Laboratory results published in US20250115620A1, “BRIDGED TRICYCLIC CARBAMOYLPYRIDONE COMPOUNDS AND USES THEREOF” (Gilead Sciences, Inc., priority 2022, published 2025).
Like-named read-outs stand apart in the source and are kept apart here.

What was measured:
HIV-1 (IIIB) = assay: microbe, parasite or virus in culture; format: cell-based; details: HIV-1 (IIIB) in MT-4 cells, 5 days incubation, Cell Titer Glo, read-out: MT4 EC50
MT-4 cells = assay: Cytotoxicity assay in MT-4 cells; details: uninfected MT-4 cells
in vitro = details: human, uninfected MT-4 cells
pLAI reporter virus = assay: microbe, parasite or virus in culture; format: cell-based, HIV
E138K/Q148K = assay: HIV double mutant assay in MT-4 cells; format: cell-based; details: E138K/Q148K vs wild type HXB2, MT-4 cells, 5 day incubation
Description: (§1) The HIV double mutant assay assesses the changes in efficacy of antiviral compounds against viral mutants compared to wild type. Each of the three mutant virus strains in this panel contain two amino acid substitutions ([…], E138K/Q148K and E92Q/N155H) of the parental HXB2. Test compounds and controls were serially diluted and spotted in replicates into 384 well black assay plates using acoustic transfer (Echo). Replicate sets of plates were made for each strain. MT-4 cells were grown in batch, centrifuged and resuspended in fresh CCM media (RPMI w/10% FBS, 1% PS) at 2×10^6 cells/ml. Cells were batch infected with each mutant strain at optimized volumes (currently HXB2 25 ul/ml; […], E138K/Q148K and E92Q/N155H at 40 ul/ml cells). The size of each infection mix was based on number of sample plates to be tested. Each infection mix was transferred into 5 ml closed tubes and nutated rapidly on a shaker at 37 deg. incubator for 1 hour. The infection mixes were then diluted 25× in fresh CCM media then added to assay plates at 40 ul per well using a Viaflo 384 pipettor. After 5 day incubation at 37 degrees in a CO2 incubator, assay plates were processed with Cell-titer glo reagent using a ViaFlo 384 with an addition/mixing program. Plates were read immediately on Envision reader. Assay signals were plotted and dose response curves generated to determine individual compound EC50s. The effect of each mutation was assessed by comparing EC50s of wild type and mutant strains.

E92Q/N155H = assay: HIV double mutant assay in MT-4 cells; format: cell-based; details: E92Q/N155H vs wild type HXB2, MT-4 cells, 5 day incubation
Description: as §1

G140S/Q148R = assay: HIV double mutant assay in MT-4 cells; format: cell-based; details: G140S/Q148R vs wild type HXB2, MT-4 cells, 5 day incubation
Description: as §1

[1] = Half life, PK in monkeys after intravenous infusion; format: in vivo; details: cynomolgus, monkey, single-dose intravenous infusion for 30 minutes, plasma, read-out: Cyno half-life (converted)
Description: Test compound PK was determined in monkeys (Labcorp, Madison, WI) following a single-dose intravenous infusion for 30 minutes. The dosing vehicle was a mixture of N-methylpyrrolidone, polyethylene glycol 300, and water for intravenous administration in monkeys. […] Nonclinical plasma samples were prepared by addition of 200 μl cold acetonitrile/internal standard solution to 96-well plates containing 50 μl aliquots of each plasma sample. After protein precipitation, each of the supernatants (50 μl) were transferred to clean 96-well plates and diluted with 450 μl of water. The sample injection volume was 2 μl. Samples were analyzed by a multiple reaction monitoring LC-MS/MS method. […] Thermo Fisher Scientific), and the ABSciex QTRAP5500 Mass Spectrometer LC-MS/MS system. […] The following plasma PK parameters were estimated in nonclinical species (as appropriate): observed peak plasma concentration (Cmax), time to reach Cmax (Tmax), last quantifiable plasma concentration (Clast), t1/2, time of Clast (Tlast), area under the plasma concentration-time curve (AUC) from time 0 [NT], AUC from time 0 to infinity (AUCinf), CL, mean residence time (MRT), and volume of distribution at steady state (Vss).

[2] = Human immunodeficiency virus 1, IIIB, MT4, 120 h
[3] = Human immunodeficiency virus 1, MT4, 72 h, read-out: RLUC CCM EC50
[4] = Human immunodeficiency virus 1, MT4, 72 h, read-out: RLUC 50% HS EC50

| Compound | EC50 (HIV-1 (IIIB)) | EC50 (HIV-1 (IIIB); [2]) | CC50 (MT-4 cells) | CC50 at 5 days (in vitro) | EC50 (pLAI reporter virus; [3]) | EC50 (pLAI reporter virus; read-out: RLUC CCM EC50) | Double Mutant Shift (fold over wild type) (E138K/Q148K) | Double Mutant Shift (fold over wild type) (E92Q/N155H) | Double Mutant Shift (fold over wild type) (G140S/Q148R) | EC50 (pLAI reporter virus; [4]) | half-life [1] | EC50 (pLAI reporter virus; CCM media (RPMI/10% FBS), MT-4 cells, 3 days, read-out: RLUC CCM EC50) | EC50 (pLAI reporter virus; read-out: RLUC 50% HS EC50, 50% human serum media, MT-4 cells, 3 days) |
| --- | --- | --- | --- | --- | --- | --- | --- | --- | --- | --- | --- | --- | --- |
| CC1=NN(c2ccccc2)C2(CC[C@H](C)N3C[C@H]2n2cc(C(=O)NCc4c(F)cc(F)cc4F)c(=O)c(O)c2C3=O)C1 (single isomer, unassigned) [Example 90, (3′S,7′R)-12′-hydroxy-3′,5-dimethyl-1′,11′-dioxo-2-phenyl-N-(2,4,6-trifluorobenzyl)-1′,2,4,4′,5′,11′-hexahydro-3′H,7′H-spiro[pyrazole-3,6′-[2,7]methanopyrido[1,2-a][1,4]diazonine]-10′-carboxamide] | 3.2 nM | 4.3 nM | 20000 nM | 22300 nM | 1.3 nM | 1.2 nM | – | – | – | – | – | – | – |
| CC1=NO[C@@]2(CC[C@H](C)N3C[C@H]2n2cc(C(=O)NCc4ccc(F)cc4F)c(=O)c(O)c2C3=O)C1 [Example 1, (3'S,5S,7′R)—N-(2,4-difluorobenzyl)-12′-hydroxy-3,3′-dimethyl-1′,11′-dioxo-1′,4′,5′,11′-tetrahydro-3′H,4H,7′H-spiro[isoxazole-5,6′-[2,7]methanopyrido[1,2-a][1,4]diazonine]-10′-carboxamide] | – | 0.8 nM | – | 20400 nM | 0.3 nM | 0.25 nM | 3× | 1× | 4× | 92 nM | 29 h | – | – |
| COC1=NO[C@@]2(CC[C@H](C)N3C[C@H]2n2cc(C(=O)NCc4ccc(F)cc4F)c(=O)c(O)c2C3=O)C1 [Example 40, (3′S,5S,7′R)—N-(2,4-difluorobenzyl)-12′-hydroxy-3-methoxy-3′-methyl-1′,11′-dioxo-1′,4′,5′,11′-tetrahydro-3′H,4H,7′H-spiro[isoxazole-5,6′-[2,7]methanopyrido[1,2-a][1,4]diazonine]-10′-carboxamide] | – | 0.8 nM | – | 34100 nM | 0.2 nM | – | 4× | 1× | 5× | 22.5 nM | 12 h | – | – |
| C[C@H]1CC[C@]2(CO2)[C@H]2CN1C(=O)c1c(O)c(=O)c(C(=O)NCc3c(F)cc(F)cc3F)cn12 [Example 165, (2R,3′S,7′R)-12′-hydroxy-3′-methyl-1′,11′-dioxo-N-(2,4,6-trifluorobenzyl)-1′,4′,5′,11′-tetrahydro-3′H,7′H-spiro[oxirane-2,6′-[2,7]methanopyrido[1,2-a][1,4]diazonine]-10′-carboxamide] | – | 1.4 nM | – | 6590 nM | 0.3 nM | – | – | – | – | 5.4 nM | – | – | – |
| C[C@H]1CC[C@@]2(CO2)[C@H]2CN1C(=O)c1c(O)c(=O)c(C(=O)NCc3c(F)cc(F)cc3F)cn12 [Example 166, (2S,3′S,7′R)-12′-hydroxy-3′-methyl-1′,11′-dioxo-N-(2,4,6-trifluorobenzyl)-1′,4′,5′,11′-tetrahydro-3′H,7′H-spiro[oxirane-2,6′-[2,7]methanopyrido[1,2-a][1,4]diazonine]-10′-carboxamide] | – | 0.9 nM | – | 4600 nM | 0.2 nM | – | – | – | – | 1.3 nM | – | – | – |
| COC[C@H]1CO[C@]2(CC[C@H](C)N3C[C@H]2n2cc(C(=O)NCc4c(F)cc(F)cc4F)c(=O)c(O)c2C3=O)O1 [Example 167, (2R,3′S,4S,7′R)-12′-hydroxy-4-(methoxymethyl)-3′-methyl-1′,11′-dioxo-N-(2,4,6-trifluorobenzyl)-1′,4′,5′,11′-tetrahydro-3′H,7′H-spiro[[1,3]dioxolane-2,6′-[2,7]methanopyrido[1,2-a][1,4]diazonine]-10′-carboxamide] | – | 1.7 nM | – | 35800 nM | 0.6 nM | – | – | – | – | 8.7 nM | – | – | – |
| O=C(NCc1c(F)cc(F)cc1F)c1cn2c(c(O)c1=O)C(=O)N1CCCC[C@H]2C1 [Reference Compound A] | – | 1.1 nM | – | – | 0.35 nM | – | 13× | 2× | 10× | 2 nM | 3 h | – | – |
| O=C(NCc1ccc(F)cc1F)c1cn2c(c(O)c1=O)C(=O)N1CCCC[C@H]2C1 [Reference Compound B] | – | 1.5 nM | – | – | 0.28 nM | – | 18× | 3× | 12× | 1.1 nM | 5 h | – | – |
| O=C(NCc1ccc(F)cc1F)c1cn2c(c(O)c1=O)C(=O)N1CCCC3(CC3)[C@H]2C1 [Reference Compound C, reference compound] | – | 1.2 nM | – | – | 0.25 nM | – | 3× | 2× | 5× | 2 nM | – | – | – |
| C[C@H]1CCC[C@H]2CN1C(=O)c1c(O)c(=O)c(C(=O)NCc3ccc(F)cc3F)cn12 [Reference Compound D] | – | 1.3 nM | – | – | 0.22 nM | – | 6× | 1× | 5× | 7.5 nM | 3 h | – | – |
| (3′S,5S,7′R)—N-((2,4-difluorophenyl)methyl-d2)-12′-hydroxy-3,3′-dimethyl-1′,11′-dioxo-1′,4′,5′,11′-tetrahydro-3′H,4H,7′H-spiro[isoxazole-5,6′-[2,7]methanopyrido[1,2-a][1,4]diazonine]-10′-carboxamide-N′-^15N [Example 151] | 1.8 nM | – | 13800 nM | – | – | – | – | – | – | – | – | 0.3 nM | 69.2 nM |
